Experimental data taken from patent US20110184188A1, “Insecticidal Benzenedicarboxamide Derivative” (priority 2008, published 2011).

Experiment: logP(acid) by reverse phase (C18) chromatography at pH 2.3
Format: physicochemical
Conditions: reverse phase (C18) chromatography at pH 2.3

logP (acid) | Physical property logP (acid) | Structure (SMILES)
3.50 | – | CSC[C@H](C)NC(=O)c1c(Cl)cccc1C(=O)Nc1ccc(Cn2c(C(F)(F)F)nc(Cl)c2Cl)nc1C [13-502]
– | logP (acid) 3.33 | CSCC(C)NC(=O)c1c(Cl)cccc1C(=O)Nc1ccc(Cn2nc(C(F)(F)C(F)F)nc2C(F)(F)C(F)F)nc1C (stereo not drawn) [14-31]
– | logP (acid) 4.13 | CCSc1nc(C(F)(F)F)nn1Cc1ccc(NC(=O)c2cccc(Cl)c2C(=O)NC(C)CSC)c(C)c1 (stereo not drawn) [14-38]
– | logP (acid) 4.13 | CSCC(C)NC(=O)c1c(Cl)cccc1C(=O)Nc1ccc(Cn2nc(C(F)(F)F)nc2SC(C)C)cc1C (stereo not drawn) [14-39]
– | logP (acid) 4.91 | CCCCCSc1nc(C(F)(F)F)nn1Cc1ccc(NC(=O)c2cccc(Cl)c2C(=O)NC(C)CSC)c(C)c1 (stereo not drawn) [14-40]
– | logP (acid) 2.59 | Cc1nc(Cn2nc(C(F)(F)C(F)(F)F)nc2C(F)(F)F)ccc1NC(=O)c1cccc(Cl)c1C(=O)NC(C)C[S+](C)[O-] (stereo not drawn) [14-60]

Same assay, conditions: reverse phase (C18) chromatography, pH 2.3

Structure (SMILES) | logP (acid)
CSC[C@H](C)NC(=O)c1c(Cl)cccc1C(=O)Nc1ccc(Cn2cc(C(=O)NC(C)C)c(C(F)(F)F)n2)cc1C [13-209] | logP (acid) 2.87
CSC[C@H](C)NC(=O)c1c(Cl)cccc1C(=O)Nc1ccc(Cn2cc(C(=O)NCC(F)(F)F)c(C(F)(F)F)n2)cc1C [13-210] | logP (acid) 3.05
CSC[C@H](C)NC(=O)c1c(Cl)cccc1C(=O)Nc1ccc(Cn2cc(C(=O)Nc3cc(C(F)(F)F)cc(C(F)(F)F)c3)c(C(F)(F)F)n2)cc1C [13-211] | logP (acid) 4.55
CSC[C@H](C)NC(=O)c1c(Cl)cccc1C(=O)Nc1ccc(Cn2nc(C(F)(F)C(F)(F)F)cc2C(=O)C(F)(F)F)cc1C [13-220] | logP (acid) 3.52
CSC[C@H](C)NC(=O)c1c(Cl)cccc1C(=O)Nc1ccc(Nc2c(C(F)(F)F)c(C(F)(F)C(F)(F)F)nn2C)nc1C [13-226] | logP (acid) 3.64
CSC[C@H](C)NC(=O)c1c(Cl)cccc1C(=O)Nc1ccc(Nc2c(SC(F)(F)F)c(C(F)(F)F)nn2-c2c(Cl)cc(C(F)(F)F)cc2Cl)nc1C [13-227] | logP (acid) 5.09
CSC[C@H](C)NC(=O)c1c(Cl)cccc1C(=O)Nc1ccc(Oc2cc(C(F)(F)F)n(C)n2)nc1C [13-228] | logP (acid) 2.98
CSC[C@H](C)NC(=O)c1c(Cl)cccc1C(=O)Nc1ccc(C(=O)c2cc(C(F)(F)C(F)(F)F)n[nH]2)cc1C [13-229] | logP (acid) 3.4
CSC[C@H](C)NC(=O)c1c(Cl)cccc1C(=O)Nc1ccc(Cc2cc(C(F)(F)C(F)(F)F)n[nH]2)cc1C [13-230] | logP (acid) 3.29
CSC[C@H](C)NC(=O)c1c(Cl)cccc1C(=O)Nc1ccc(Cn2nc(C(F)(F)F)cc2C(F)(F)F)nc1Cl [13-232] | logP (acid) 3.97
CSC[C@H](C)NC(=O)c1cc(Cl)c(Cl)cc1C(=O)Nc1ccc(Cn2nc(C(F)(F)F)cc2C(F)(F)F)nc1C [13-238] | logP (acid) 3.74
CSC[C@H](C)NC(=O)c1c(I)cccc1C(=O)Nc1ccc(Cn2nc(C(F)(F)F)cc2C(F)(F)C(F)(F)F)nc1C [13-239] | logP (acid) 4.27
Cc1nc(Cn2nc(C(F)(F)F)cc2C(F)(F)F)ccc1NC(=O)c1c(Cl)cccc1C(=O)NC1CCS(=O)(=O)C1 (stereo not drawn) [13-276] | logP (acid) 3.28
CCC(CC#N)NC(=O)c1c(Cl)cccc1C(=O)Nc1ccc(Cn2nc(C(F)(F)F)cc2C(F)(F)F)cc1C (stereo not drawn) [13-277] | logP (acid) 3.42
Cc1nc(Cn2nc(C(F)(F)F)cc2C(F)(F)F)ccc1NC(=O)c1c(Cl)cccc1C(=O)NC1=NN(c2ccccc2)C(=O)C1 [13-281] | logP (acid) 4.41
Cc1nc(Cn2nc(C(F)(F)F)cc2C(F)(F)F)ccc1NC(=O)c1c(Cl)cccc1C(=O)NC(C)CN(C)C (stereo not drawn) [13-283] | logP (acid) 2.4
CSC[C@H](C)NC(=O)c1c(C(=O)Nc2ccc(Cn3nc(C(F)(F)F)cc3C(F)(F)F)nc2C)cccc1S(C)(=O)=O [13-286] | logP (acid) 3.21
CSC[C@H](C)NC(=O)c1c(C(=O)Nc2ccc(Cn3cc(C(F)(F)C(F)(F)F)c(C(F)(F)C(F)(F)F)n3)nc2C)cccc1S(C)(=O)=O [13-290] | logP (acid) 3.80
CSC[C@H](C)NC(=O)c1c(SC)cccc1C(=O)Nc1ccc(Cn2nc(C(F)(F)C(F)(F)F)c(C(F)(F)F)c2F)cc1C [13-308] | logP (acid) 4.43
CSC[C@H](C)NC(=O)c1c(SC)cccc1C(=O)Nc1ccc(Cn2nc(C(F)(F)C(F)(F)F)cc2C(F)(F)F)cc1C [13-310] | logP (acid) 4.74
CSC[C@H](C)NC(=O)c1c(C(=O)Nc2ccc(Cn3nc(C(F)(F)C(F)(F)F)cc3C(F)(F)F)cc2C)cccc1S(C)(=O)=O [13-311] | logP (acid) 4.20
CSC[C@H](C)NC(=O)c1c(SC)cccc1C(=O)Nc1ccc(Cn2nc(C(F)(F)C(F)(F)F)cc2C(F)(F)C(F)(F)F)nc1C [13-342] | logP (acid) 4.45
CSc1cccc(C(=O)Nc2ccc(Cn3nc(C(F)(F)C(F)(F)F)cc3C(F)(F)F)nc2C)c1C(=O)N[C@@H](C)C[S+](C)[O-] (stereo partly drawn) [13-343] | logP (acid) 2.78
CCS(=O)(=O)c1cccc(C(=O)Nc2ccc(Cn3nc(C(F)(F)F)cc3C(F)(F)F)cc2C)c1C(=O)N[C@@H](C)CSC [13-346] | logP (acid) 3.74
Cc1cc(Cn2nc(C(F)(F)F)cc2C(F)(F)F)ccc1NC(=O)c1cccc(S(=O)(=O)N(C)C)c1C(=O)N[C@@H](C)CS(C)(=O)=O [13-349] | logP (acid) 3.07
Cc1nc(Cn2c(C(F)(F)F)nc(Cl)c2Cl)ccc1NC(=O)c1cccc(Cl)c1C(=O)N[C@@H](C)C[S+](C)[O-] (stereo partly drawn) [13-363] | logP (acid) 2.17

More lines, now with the values ahead:

logP (acid) | Structure (SMILES)
logP (acid) 2.53 | CCN(CC)CC(C)NC(=O)c1cccc(Cl)c1C(=O)Nc1ccc(Cn2nc(C(F)(F)F)cc2C(F)(F)F)nc1C (stereo not drawn) [13-285]
logP (acid) 2.75 | Cc1nc(Cn2nc(C(F)(F)F)cc2C(F)(F)F)ccc1NC(=O)c1cccc(S(=O)(=O)N(C)C)c1C(=O)N[C@@H](C)CS(C)(=O)=O [13-289]
logP (acid) 3.50 | CSC[C@H](C)NC(=O)c1c(SC)cccc1C(=O)Nc1ccc(Cn2nc(C(F)(F)C(F)(F)F)cc2C(=O)C(F)(F)F)cc1C [13-325]
logP (acid) 4.19 | CSC[C@H](C)NC(=O)c1c(Cl)cccc1C(=O)Nc1ccc(N(C)c2c(C(F)(F)F)c(C(F)(F)C(F)(F)F)nn2C)nc1C [13-353]
logP (acid) 2.91 | Cc1nc(N(C)c2c(C(F)(F)F)c(C(F)(F)C(F)(F)F)nn2C)ccc1NC(=O)c1cccc(Cl)c1C(=O)N[C@@H](C)C[S+](C)[O-] (stereo partly drawn) [13-354]
logP (acid) 2.59 | Cc1nc(Cn2c(C(F)(F)F)nc(Cl)c2Cl)ccc1NC(=O)c1cccc(Cl)c1C(=O)N[C@@H](C)CS(C)(=O)=O [13-364]
logP (acid) 3.26 | CSC[C@H](C)NC(=O)c1c(Cl)cccc1C(=O)Nc1cnc(Cn2nc(C(F)(F)F)nc2C(F)(F)F)cc1C [14-268]
logP (acid) 3.37 | CSC[C@H](C)NC(=O)c1c(Br)cccc1C(=O)Nc1cnc(Cn2nc(C(F)(F)F)nc2C(F)(F)F)cc1C [14-271]
logP (acid) 3.44 | CSC[C@H](C)NC(=O)c1c(I)cccc1C(=O)Nc1cnc(Cn2nc(C(F)(F)F)nc2C(F)(F)F)cc1C [14-274]
logP (acid) 3.56 | CC(=O)CC(C)NC(=O)c1c(Cl)cccc1C(=O)Nc1ccc(Cn2nc(C(F)(F)C(F)(F)F)nc2C(F)(F)F)cc1C (stereo not drawn) [14-295]
